Assays:
Experiment in all cases: Cancer cell growth inhibition, Sulforhodamine B
Type in all cases: cell-based
HCT15 = settings: Homo sapiens, HCT-15; HCT15 (colon), 72 hr; Responder Cell Lines
Procedure: (§1) The ability of select compounds to inhibit cell growth in various cancer cell lines are evaluated. […] The cell lines shown in Table 5 have reduced growth by at least 50% at 10 uM or lower over 72 hr treatment in growth media. The cell lines shown in Table 6 have reduced growth by at least 50% with an IC50 greater than 10 uM.
(§2) Six 10-fold compound dilutions are prepared in DMSO (e.g. 10 mM, 1 mM, 100 uM, 10 uM, 1 uM, and 0.1 uM). Single data points are acquired for each concentration. The final concentration of DMSO is 0.1%. The duration of the treatment is 72 hr. Growth inhibition is measured using Sulforhodamine B in a protein staining assay. Activity of the agents is determined by evaluation the following parameters: IC50, GI50, IC10, TGI, LC50, IC90, and GI90 (where these values can be calculated).

KASUMI-1 = settings: Homo sapiens; KASUMI-1 (hematological), 72 hr; Non-Responder Cell Lines with IC50 >10 uM or Not Determined
Procedure: as §1, §2

ASPC1 = settings: Homo sapiens; ASPC1 (pancreas), 72 hr; Responder Cell Lines
Procedure: as §1, §2

MV4-11 = settings: Homo sapiens, MV4-11, 72 h, MV4-11 (hematological)
Procedure: as §1, §2

NCIH82 = settings: Homo sapiens, NCI-H82, 72 h, NCIH82 (lung)
Procedure: as §1, §2

ACHN = settings: Homo sapiens; ACHN (kidney), 72 hr; Responder Cell Lines
Procedure: as §1, §2

SKBR3 = settings: Homo sapiens, SK-BR-3, 72 h, SKBR3 (breast)
Procedure: as §1, §2

RDES = settings: RD-ES; RDES (bone), 72 hr; Non-Responder Cell Lines with IC50 >10 uM or Not Determined
Procedure: as §1, §2

OVCAR3 = settings: Homo sapiens, OVCAR-3, 72 h, OVCAR3 (ovary)
Procedure: as §1, §2

MDAMB436 = settings: Homo sapiens, MDA-MB-436; MDAMB436 (breast), 72 hr; Non-Responder Cell Lines with IC50 >10 uM or Not Determined
Procedure: as §1, §2

BT20 = settings: Homo sapiens, BT-20; BT20 (breast), 72 hr; Non-Responder Cell Lines with IC50 >10 uM or Not Determined
Procedure: as §1, §2

SAOS2 = settings: Homo sapiens, SAOS-2; SAOS2 (bone), 72 hr; Non-Responder Cell Lines with IC50 >10 uM or Not Determined
Procedure: as §1, §2

PC3 = settings: Homo sapiens, PC-3; PC3 (prostate), 72 hr; Non-Responder Cell Lines with IC50 >10 uM or Not Determined
Procedure: as §1, §2

OVCAR4 = settings: Homo sapiens, OVCAR-4; OVCAR4 (ovary), 72 hr; Non-Responder Cell Lines with IC50 >10 uM or Not Determined
Procedure: as §1, §2

MG63 = settings: Homo sapiens, MG-63; MG63 (bone), 72 hr; Non-Responder Cell Lines with IC50 >10 uM or Not Determined
Procedure: as §1, §2

JEG3 = settings: Homo sapiens, JEG-3; JEG3 (placenta), 72 hr; Responder Cell Lines
Procedure: as §1, §2

U2OS = settings: Homo sapiens; U2OS (bone), 72 hr; Non-Responder Cell Lines with IC50 >10 uM or Not Determined
Procedure: as §1, §2

SKHEP1 = settings: Homo sapiens, SK-HEP1, 72 h, SKHEP1 (liver)
Procedure: as §1, §2

SW620 = settings: Homo sapiens, SW-620; SW620 (colon), 72 hr; Non-Responder Cell Lines with IC50 >10 uM or Not Determined
Procedure: as §1, §2

UO31 = settings: Homo sapiens, UO-31; UO31 (kidney), 72 hr; Non-Responder Cell Lines with IC50 >10 uM or Not Determined
Procedure: as §1, §2

DLD1 = settings: Homo sapiens, DLD-1; DLD1 (colon), 72 hr; Non-Responder Cell Lines with IC50 >10 uM or Not Determined
Procedure: as §1, §2

NCIH358M = settings: NCI-H358M; NCIH358M (lung), 72 hr; Non-Responder Cell Lines with IC50 >10 uM or Not Determined
Procedure: as §1, §2

SU-DHL-6 = settings: Homo sapiens, SU-DHL-6, 72 h, SU-DHL-6 (hematological)
Procedure: as §1, §2

[1] = Non-Responder Cell Lines with IC50 >10 uM or Not Determined

Work on `CC(C)(O)c1cc(-c2csc(-c3ccc(C(=O)N4CCC(O)CC4)cc3Cl)c2)ccn1` [Compound 1, (3-chloro-4-(4-(2-(2-hydroxypropan-2-yl)pyridin-4-yl)thiophen-2-yl)phenyl)(4-hydroxypiperidin-1-yl)methanone] yielded an IC50 (HCT15) of under 10 µM, an IC50 (KASUMI-1) of over 10 µM and an IC50 (ASPC1) of under 10 µM. It also gave an IC50 (MV4-11; [1]) of over 10 µM, an IC50 (MV4-11; Responder Cell Lines) of under 10 µM and an IC50 (NCIH82; [1]) of over 10 µM. It also gave an IC50 (NCIH82; Responder Cell Lines) of under 10 µM, an IC50 (ACHN) of under 10 µM and an IC50 (SKBR3; [1]) of over 10 µM. The IC50 (SKBR3; Responder Cell Lines) was under 10 µM, the IC50 (RDES) was over 10 µM and the IC50 (OVCAR3; [1]) was over 10 µM. The IC50 (OVCAR3; Responder Cell Lines) was under 10 µM, the IC50 (MDAMB436) was over 10 µM and the IC50 (BT20) was over 10 µM. It also gave an IC50 (SAOS2) of over 10 µM, an IC50 (PC3) of over 10 µM and an IC50 (OVCAR4) of over 10 µM. For the same compound, the IC50 (MG63) was over 10 µM, the IC50 (JEG3) was under 10 µM and the IC50 (U2OS) was over 10 µM. For the same compound, the IC50 (SKHEP1; [1]) was over 10 µM, the IC50 (SKHEP1; Responder Cell Lines) was under 10 µM and the IC50 (SW620) was over 10 µM. It also gave an IC50 (UO31) of over 10 µM, an IC50 (DLD1) of over 10 µM and an IC50 (NCIH358M) of over 10 µM. For the same compound, the IC50 (SU-DHL-6; [1]) was over 10 µM and the IC50 (SU-DHL-6; Responder Cell Lines) was under 10 µM.

Source: patent US20220356170A1, “SREBP INHIBITOR COMPRISING A THIOPHENE CENTRAL RING” (Capulus Therapeutics, LLC, priority 2019, published 2022)
